Patent publication US7632829B2, “Diazepan derivatives” (Hoffmann-La Roche Inc., priority 2006, dated 2009)
Where a name gives a salt, the structure may show the parent alone.

Molecular target: T1, human chemokine receptor 2 isoform B (Homo sapiens, UniProt P41597)
T1 construct: host or cells: CHOK1-CCR2B-A5 (CHO-K1)
T1 sequence (P41597 1-360 isoform P41597-2): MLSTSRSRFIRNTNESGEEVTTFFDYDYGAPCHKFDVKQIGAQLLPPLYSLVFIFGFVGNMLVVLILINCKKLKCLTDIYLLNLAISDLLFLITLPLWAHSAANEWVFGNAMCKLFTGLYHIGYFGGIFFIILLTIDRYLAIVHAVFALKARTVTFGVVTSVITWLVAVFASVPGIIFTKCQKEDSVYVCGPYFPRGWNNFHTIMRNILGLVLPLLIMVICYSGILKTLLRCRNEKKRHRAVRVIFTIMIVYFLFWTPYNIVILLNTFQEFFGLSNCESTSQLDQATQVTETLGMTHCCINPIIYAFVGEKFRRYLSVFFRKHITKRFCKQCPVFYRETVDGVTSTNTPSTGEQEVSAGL
Assay: Calcium mobilization assay (FLIPR, CHOK1-CCR2B-A5 cells, 20 nM MCP-1)
Assay type: cell-based
Settings: Ca mobilisation assay, CCR2, antagonist activity vs 20 nM MCP-1
Description: CHOK1-CCR2B-A5 cells (from Euroscreen) stably overexpressing the human chemokine receptor 2 isoform B were cultured in Nutrient Hams F12 medium supplemented with 5% FBS, 100 U/ml penicillin, 100 μg/ml streptomycin, 400 μg/ml G418 and 5 μg/ml puromycin.
For the assay cells were grown overnight in 384-well black clear flat bottom polystyrene plates (Costar) at 37° C. at 5% CO2. After washing with DMEM, 20 mM Hepes, 2.5 mM probenecid, 0.1% BSA (DMEM assay buffer) cells were loaded with 4 μM Fluo-4 in the same DMEM assay buffer for 2 hours at 30° C. Excess dye was removed and cells were washed with DMEM assay buffer. 384-well compound plates were prepared with DMEM assay buffer/0.5% DMSO with or without various concentrations of test compounds. Usually compounds were tested for agonist and antagonist activity.
Test compounds were added to the assay plate and agonist activity was monitored as fluorescence for 80 seconds with a FLIPR (488 nm excitation; 510-570 nm emission; Molecular Devices). After 20-30 min. of incubation at 30° C., 20 nM MCP-1 (R&D; Roche) was added and fluorescence was monitored again for 80 seconds. Increases in intracellular calcium are reported as maximum fluorescence after agonist exposure minus basal fluorescence before exposure. Antagonist activity is indicated as inhibitor concentration required for 50% inhibition of specific calcium increases.

For `O=C(/C=C/c1ccc(F)c(Cl)c1)N1CCC(=O)N(C[C@@H](O)CN2CC[C@@H](CO)[C@H](O)C2)CC1` (mixture of isomers) [Example 339, 1-[(E)-3-(3-Chloro-4-fluoro-phenyl)-acryloyl]-4-[(S)-2-hydroxy-3-(trans-3-hydroxy-4-hydroxymethyl-piperidin-1-yl)-propyl]-[1,4]diazepan-5-one], which IC50 is on record?
Its IC50 is 1360 nM.

For `C[C@@H]1C[C@H](O)CN(C[C@H](O)CN2CCN(C(=O)/C=C/c3ccc(F)c(Cl)c3)CCC2=O)C1` (mixture of isomers) [Example 344, 1-[(E)-3-(3-Chloro-4-fluoro-phenyl)-acryloyl]-4-[(S)-2-hydroxy-3-(cis-3-hydroxy-5-methyl-piperidin-1-yl)-propyl]-[1,4]diazepan-5-one], which IC50 is on record?
The IC50 was 26 nM.

With `CC1CC(O)CN(CCCCN2CCN(C(=O)C=Cc3ccc(Cl)c(F)c3)CCC2=O)C1` (mixture of isomers) [Example 421, (rac,cis)-1-[(E)-3-(4-Chloro-3-fluoro-phenyl)-acryloyl]-4-[4-(3-hydroxy-5-methyl-piperidin-1-yl)-butyl]-[1,4]diazepan-5-one] as the molecule, how does the IC50 read?
The IC50 was 64 nM.

With `CC1C(O)CCCN1CCCCN1CCN(C(=O)C=Cc2ccc(Cl)c(Cl)c2)CCC1=O` (mixture of isomers) [Example 428, (rac,trans)-1-[(E)3-(3,4-Dichloro-phenyl)-acryloyl]-4-[4-(3-hydroxy-2-methyl-piperidin-1-yl)-butyl]-[1,4]diazepan-5-one] as the molecule, how does the IC50 read?
Its IC50 is 113 nM.

With `O=C(C=Cc1ccc(Cl)c(Cl)c1)N1CCC(=O)N(CCCCN2CCC(F)C(O)C2)CC1` (mixture of isomers) [Example 429, (rac,trans)-1-[(E)-3-(3,4-Dichloro-phenyl)-acryloyl]-4-[4-(4-fluoro-3-hydroxy-piperidin-1-yl)-butyl]-[1,4]diazepan-5-one] as the molecule, how does the IC50 read?
Its IC50 is 86 nM.

`O=C(C=Cc1ccc(Cl)c(Cl)c1)N1CCC(=O)N(CCCCN2CCC(O)C(F)C2)CC1` (mixture of isomers) [Example 434, (rac,trans)-1-[(E)-3-(3,4-Dichloro-phenyl)-acryloyl]-4-[4-(3-fluoro-4-hydroxy-piperidin-1-yl)-butyl]-[1,4]diazepan-5-one] was tested. Which IC50 did it give?
Its IC50 is 140 nM.

`CC1CC(O)CN(CCCCN2CCN(C(=O)C=Cc3ccc(Cl)c(Cl)c3)CCC2=O)C1` (mixture of isomers) [Example 482, (rac,cis)-1-[(E)-3-(3,4-Dichloro-phenyl)-acryloyl]-4-[4-(3-hydroxy-5-methyl-piperidin-1-yl)-butyl]-[1,4]diazepan-5-one] was tested. Which IC50 did it give?
Its IC50 is 13 nM.

For `O=C(/C=C/c1ccc(Cl)c(Cl)c1)N1CCC(=O)N(CCCNC2CC3CCC2C3)CC1` (racemic) [Example 38, (+/−)-4-[3-(Bicyclo[2.2.1]hept-2-ylamino)-propyl]-1-[(E)-3-(3,4-dichloro-phenyl)-acryloyl]-[1,4] diazepan-5-one], which IC50 is on record?
The IC50 was 121 nM.

With `CC(=O)NC1CCN(CCCN2CCN(C(=O)/C=C/c3ccc(Cl)c(Cl)c3)CCC2=O)C1` (racemic) [Example 44, (+/−)-N-[1-(E)-(3-{4-[3-(3,4-Dichloro-phenyl)-acryloyl]-7-oxo-[1,4]diazepan-1-yl}-propyl)-pyrrolidin-3-yl]-acetamide] as the molecule, how does the IC50 read?
Its IC50 is 646 nM.

For `CC1CCCCN1CCCN1CCN(C(=O)/C=C/c2ccc(Cl)c(Cl)c2)CCC1=O` (racemic) [Example 62, (+/−)-1-[(E)-3-(3,4-Dichloro-phenyl)-acryloyl]-4-[3-(2-methyl-piperidin-1-yl)-propyl]-[1,4]diazepan-5-one], which IC50 is on record?
The IC50 was 165 nM.

For `O=C(/C=C/c1ccc(Cl)c(Cl)c1)N1CCC(=O)N(CCCN2CCC(O)C2)CC1` (racemic) [Example 71, (+/−)-1-[(E)-3-(3,4-Dichloro-phenyl)-acryloyl]-4-[3-(3-hydroxy-pyrrolidin-1-yl)-propyl]-[1,4]diazepan-5-one], which IC50 is on record?
Its IC50 is 566 nM.

For `COC1CCCN(CCCN2CCN(C(=O)/C=C/c3ccc(Cl)c(Cl)c3)CCC2=O)C1` (racemic) [Example 80, (+/−)-1-[(E)-3-(3,4-Dichloro-phenyl)-acryloyl]-4-[3-(3-methoxy-piperidin-1-yl)-propyl]-[1,4]diazepan-5-one], which IC50 is on record?
The IC50 was 263 nM.

For `CC1CCCCN1CCN1CCN(C(=O)C=Cc2ccc(Cl)c(Cl)c2)CCC1=O` (racemic) [Example 102, (+/−)-1-[(E)-3-(3,4-Dichloro-phenyl)-acryloyl]-4-[3-(2-methyl-piperidin-1-yl)-ethyl]-[1,4]diazepan-5-one], which IC50 is on record?
Its IC50 is 1020 nM.

With `O=C(C=Cc1ccc(Cl)c(Cl)c1)N1CCC(=O)N(CCNC2CC3CCC2C3)CC1` (racemic) [Example 110, (+/−)-4-[3-(Bicyclo[2.2.1]hept-2-ylamino)ethyl]-1-[(E)-3-(3,4-dichloro-phenyl)-acryloyl]-[1,4]diazepan-5-one] as the molecule, how does the IC50 read?
The IC50 was 641 nM.

How did the IC50 turn out when `O=C(/C=C/c1ccc(Cl)c(Cl)c1)N1CCC(=O)N(CCCCN2CCCC(O)C2)CC1` (racemic) [Example 161, 1-[(E)-3-(3,4-Dichloro-phenyl)-acryloyl]-4-[4-(3-hydroxy-piperidin-1-yl)-butyl]-[1,4]diazepan-5-one] was run?
Its IC50 is 47 nM.

Which IC50 does the source give for `O=C(/C=C/c1ccc(Cl)c(Cl)c1)N1CCC(=O)N(CCCCN2CC[C@H](O)[C@H](O)C2)CC1` (racemic) [Example 163, 1-[(E)-3-(3,4-Dichloro-phenyl)-acryloyl]-4-[4-((3RS,4SR)-3,4-dihydroxy-piperidin-1-yl)-butyl]-[1,4]diazepan-5-one hydrochlorid] here?
Its IC50 is 560 nM.

With `O=C(/C=C/c1ccc(Cl)c(Cl)c1)N1CCC(=O)N(CCCCN2CC[C@@H](O)[C@H](O)C2)CC1` (racemic) [Example 164, 1-[(E)-3-(3,4-Dichloro-phenyl)-acryloyl]-4-[4-((3RS,4RS)-3,4-dihydroxy-piperidin-1-yl)-butyl]-[1,4]diazepan-5-one hydrochloride] as the molecule, how does the IC50 read?
Its IC50 is 544 nM.

How did the IC50 turn out when `O=C(/C=C/c1ccc(Cl)c(Cl)c1)N1CCC(=O)N(CCCCN2CC[C@@H](O)[C@H](O)C2)CC1` (racemic) [Example 165, 1-[(E)-3-(3,4-Dichloro-phenyl)-acryloyl]-4-[4-((3RS,4RS)-3,4-dihydroxy-piperidin-1-yl)-butyl]-[1,4]diazepan-5-one] was run?
Its IC50 is 345 nM.

For `O=C(/C=C/c1ccc(Cl)c(Cl)c1)N1CCC(=O)N(CC(O)CN2CCCCC2)CC1` (racemic) [Example 166, (rac)-1-[(E)-3-(3,4-Dichloro-phenyl)-acryloyl]-4-(2-hydroxy-3-piperidin-1-yl-propyl)-[1,4]diazepan-5-one], which IC50 is on record?
The IC50 was 212 nM.

How did the IC50 turn out when `O=C(/C=C/c1ccc(Cl)c(Cl)c1)N1CCC(=O)N(CC(O)CN2CCC(F)CC2)CC1` (racemic) [Example 169, (rac)-1-[(E)-3-(3,4-Dichloro-phenyl)-acryloyl]-4-[3-(4-fluoro-piperidin-1-yl)-2-hydroxy-propyl]-[1,4]diazepan-5-one] was run?
Its IC50 is 255 nM.

Which IC50 does the source give for `O=C(/C=C/c1ccc(Cl)c(Cl)c1)N1CCC(=O)N(CCC(O)CN2CCCCC2)CC1` (racemic) [Example 170, (rac)-1-[(E)-3-(3,4-Dichloro-phenyl)-acryloyl]-4-(3-hydroxy-4-piperidin-1-yl-butyl)-[1,4]diazepan-5-one] here?
The IC50 was 448 nM.

For `O=C(/C=C/c1ccc(Cl)c(Cl)c1)N1CCC(=O)N(CCC(O)CN2CCCC(O)C2)CC1` (racemic) [Example 171, (rac)-1-[(E)-3-(3,4-Dichloro-phenyl)-acryloyl]-4-[3-hydroxy-4-(3-hydroxy-piperidin-1-yl)-butyl]-[1,4]diazepan-5-one], which IC50 is on record?
Its IC50 is 995 nM.

With `O=C(/C=C/c1ccc(F)c(F)c1)N1CCC(=O)N(CC(O)CN2CCCCC2)CC1` (racemic) [Example 177, (rac)-1-[(E)-3-(3,4-Difluoro-phenyl)-acryloyl]-4-(2-hydroxy-3-piperidin-1-yl-propyl)-[1,4]diazepan-5-one] as the molecule, how does the IC50 read?
Its IC50 is 954 nM.

`COC(=O)C(CCCN1CCCCC1)N1CCN(C(=O)/C=C/c2ccc(Cl)c(Cl)c2)CCC1=O` (racemic) [Example 179, (rac)-2-{4-[(E)-3-(3,4-Dichloro-phenyl)-acryloyl]-7-oxo-[1,4]diazepan-1-yl}-5-piperidin-1-yl-pentanoic acid methyl ester] was tested. Which IC50 did it give?
The IC50 was 3 nM.

How did the IC50 turn out when `O=C(O)C(CCCN1CCCCC1)N1CCN(C(=O)/C=C/c2ccc(Cl)c(Cl)c2)CCC1=O` (racemic) [Example 180, Lithium; (rac)-2-{4-[(E)-3-(3,4-dichloro-phenyl)-acryloyl]-7-oxo-[1,4]diazepan-1-yl}-5-piperidin-1-yl-pentanoate] was run?
Its IC50 is 319 nM.

Which IC50 does the source give for `O=C(/C=C/c1ccc(Cl)c(Cl)c1)N1CCC(=O)N(C(CO)CCCN2CCCCC2)CC1` (racemic) [Example 181, (rac)-1-[(E)-3-(3,4-Dichloro-phenyl)-acryloyl]-4-(1-hydroxymethyl-4-piperidin-1-yl-butyl)-[1,4]diazepan-5-one] here?
The IC50 was 3 nM.
